In patent US20230203060A1 (GENFLEET THERAPEUTICS (SHANGHAI) INC., priority 2020, published 2023):

Molecular target: T1, KRAS G12C (Homo sapiens, UniProt P01116, G12C)
T1 construct: purchased Reactionbiology
Experiment: KRAS G12C NEA-HTRF experiment (SOS1-catalyzed displacement of GDP by GTP)
Assay type: biochemical
In short: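 His-tagged KRAS G12C preloaded with DY647-GDP was preincubated 15 min at 20 °C with compound, then exchanged with SOS1 (0.2 μM working solution) and GTP (200 μM working solution) for 2 h at 20 °C in the dark. HTRF 665/615 nm ratio with anti-His-Tb was normalised to T0 and no-compound controls; IC50 by four-parameter fit.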

T1 sequence (P01116 1-188 isoform P01116-2 G12C): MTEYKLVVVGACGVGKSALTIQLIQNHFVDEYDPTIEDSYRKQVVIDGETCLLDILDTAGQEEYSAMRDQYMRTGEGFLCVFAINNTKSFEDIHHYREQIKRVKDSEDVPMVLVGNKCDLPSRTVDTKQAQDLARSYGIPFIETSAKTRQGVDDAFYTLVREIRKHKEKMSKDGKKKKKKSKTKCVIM

Question: With `C=CC(=O)N1CCN2C(=O)c3c(N4CCOC[C@@H]4C)nc(-c4c(O)cccc4F)c(Cl)c3OC[C@H]2C1` [Z32] as the compound, how does the IC50 read?
Answer: Its IC50 is 142 nM.

Question: With `C=CC(=O)N1CCN2C(=O)c3c(N4CCC[C@@H]4C)nc(-c4c(O)cccc4F)c(Cl)c3OC[C@H]2C1` [Z49, (6aR)-8-acryloyl-1-((S)-2-methylpyrrolidin-1-yl)-4-chloro-3-(2-fluoro-6-hydroxyphenyl)-6,6a,7,8,9,10-hexahydro-12H-pyrazino[2,1-c]pyrido[3,4-f][1,4]oxazepin-12-one] as the compound, how does the IC50 read?
Answer: Its IC50 is 66 nM.

Question: For `C=CC(=O)N1CCN2C(=O)c3c(N4C[C@@H](N5CC(F)C5)CC4(C)C)nc(-c4ccccc4F)c(Cl)c3OC[C@H]2C1` [Z480-1, (R)-8-acryloyl-4-chloro-1-((S)-4-(3-fluoroazetidin-1-yl)-2,2-dimethylpyrrolidin-1-yl)-3-(2-fluorophenyl)-6,6a,7,8,9,10-hexahydro-12H-pyrazino[2,1-c]pyrido[3,4-f][1,4]oxazepin-12-one], which IC50 is on record?
Answer: The IC50 was 17.9 nM.

Question: How did the IC50 turn out when `C=CC(=O)N1CCN2C(=O)c3c(N4CC(N5CCOCC5)CC4(C)C)nc(-c4ccccc4F)c(Cl)c3OC[C@H]2C1` (single isomer, unassigned) [Z468-1] was run?
Answer: The IC50 was 35 nM.

Question: For `C=CC(=O)N1CCN2C(=O)c3c(N4C[C@@H](N5CC(C#N)C5)CC4(C)C)nc(-c4ccccc4F)c(Cl)c3OC[C@H]2C1` (single isomer, unassigned) [Z637-2], which IC50 is on record?
Answer: The IC50 was 23.8 nM.

Question: How did the IC50 turn out when `C=CC(=O)N1CCN2C(=O)c3c(N4C[C@H](N(C)CC(F)(F)F)CC4(C)C)nc(-c4ccccc4F)c(Cl)c3OC[C@H]2C1` (single isomer, unassigned) [Z493] was run?
Answer: Its IC50 is 125 nM.

Question: For `C=CC(=O)N1CCN2C(=O)c3c(N4CCC(OC)C4(C)C)nc(-c4c(N)cccc4F)c(Cl)c3OC[C@H]2C1` (stereo partly drawn) [Z506, (6aR)-8-acryloyl-3-(2-amino-6-fluorophenyl)-4-chloro-1-(3-methoxy-2,2-dimethylpyrrolidin-1-yl)-6,6a,7,8,9,10-hexahydro-12H-pyrazino[2,1-c]pyrido[3,4-f][1,4]oxazepin-12-one], which IC50 is on record?
Answer: Its IC50 is 18.3 nM.

Question: For `C=CC(=O)N1CCN2C(=O)c3c(N4C[C@@H](N(C)C)CC4(C)C)nc(-c4ccccc4)c(Cl)c3OC[C@H]2C1` (single isomer, unassigned) [Z655-1], which IC50 is on record?
Answer: The IC50 was 406 nM.

Question: `C=CC(=O)N1CCN2C(=O)c3c(N4C[C@H](N5CCN(C)CC5)C[C@@H]4C)nc(-c4ccccc4F)c(Cl)c3OC[C@H]2C1` [Z470-1] was tested. Which IC50 did it give?
Answer: Its IC50 is 258 nM.

Question: For `C=CC(=O)N1CCN2C(=O)c3c(N4CCN(C)C[C@@H]4C)nc(-c4c(F)cccc4Cl)c(Cl)c3OC[C@H]2C1` [Z547, (6aR)-8-acryloyl-4-chloro-3-(2-chloro-6-fluorophenyl)-1-((S)-2,4-dimethylpiperazin-1-yl)-6,6a,7,8,9,10-hexahydro-12H-pyrazino[2,1-c]pyrido[3,4-f][1,4]oxazepin-12-one], which IC50 is on record?
Answer: The IC50 was 139 nM.

Question: How did the IC50 turn out when `C=CC(=O)N1CCN2C(=O)c3c(N4CC(O)CC4(C)C)nc(-c4c(F)cccc4OC)c(F)c3OC[C@H]2C1` (single isomer, unassigned) [Z450] was run?
Answer: Its IC50 is 147 nM.

Question: `C=CC(=O)N1CCN2C(=O)c3c(N4C[C@@H](O)CC4(C)C)nc(-c4ccccc4F)c(F)c3OC[C@H]2C1` (single isomer, unassigned) [Z408-1] was tested. Which IC50 did it give?
Answer: The IC50 was 159 nM.

Question: How did the IC50 turn out when `C=CC(=O)N1CCN2C(=O)c3c(N4C[C@@H](N5CCN(C)CC5)C[C@@H]4C)nc(-c4ccccc4F)c(Cl)c3OC[C@H]2C1` [Z470-2] was run?
Answer: The IC50 was 24.7 nM.

Question: With `C=CC(=O)N1CCN2C(=O)c3c(N4CCCC45CC5)nc(-c4c(O)cccc4F)c(Cl)c3OC[C@H]2C1` [Z56, (6aR)-8-acryloyl-4-chloro-3-(2-fluoro-6-hydroxyphenyl)-1-(4-azaspiro[2.4]heptan-4-yl)-6,6a,7,8,9,10-hexahydro-12H-pyrazino[2,1-c]pyrido[3,4-f][1,4]oxazepin-12-one] as the compound, how does the IC50 read?
Answer: The IC50 was 85 nM.

Question: `C=CC(=O)N1CCN2C(=O)c3c(NC(C)(C)C)nc(-c4ccccc4F)c(Cl)c3OC[C@H]2C1` [Z457, (R)-8-acryloyl-1-(tert-butylamino)-4-chloro-3-(2-fluorophenyl)-6,6a,7,8,9,10-hexahydro-12H-pyrazino[2,1-c]pyrido[3,4-f][1,4]oxazepin-12-one] was tested. Which IC50 did it give?
Answer: Its IC50 is 133 nM.

Question: Which IC50 does the source give for `C=CC(=O)N1CCN2C(=O)c3c(N4C[C@H](N5CC(C#N)C5)CC4(C)C)nc(-c4ccccc4F)c(Cl)c3OC[C@H]2C1` (single isomer, unassigned) [Z637-1] here?
Answer: Its IC50 is 343 nM.

Question: Which IC50 does the source give for `C=CC(=O)N1CCN2C(=O)c3c(N4CC(O)CC4(C)C)nc(-c4ccccc4Cl)c(F)c3OC[C@H]2C1` (stereo partly drawn) [Z414-1, (6aR)-8-acryloyl-3-(2-chlorophenyl)-4-fluoro-1-(4-hydroxy-2,2-dimethylpyrrolidin-1-yl)-6,6a,7,8,9,10-hexahydro-12H-pyrazino[2,1-c]pyrido[3,4-f][1,4]oxazepin-12-one] here?
Answer: Its IC50 is 86.6 nM.

Question: How did the IC50 turn out when `C=CC(=O)N1CCN2C(=O)c3c(N4C[C@H](N5CC(F)(F)C5)CC4(C)C)nc(-c4ccccc4F)c(Cl)c3OC[C@H]2C1` (single isomer, unassigned) [Z525-1] was run?
Answer: The IC50 was 365 nM.

Question: Which IC50 does the source give for `C=CC(=O)N1CCN2C(=O)c3c(N4CCN(C)[C@@H](C)[C@@H]4C)nc(-c4ccccc4F)c(Cl)c3OC[C@H]2C1` [Z653, (R)-8-acryloyl-4-chloro-3-(2-fluorophenyl)-1-((2S,3S)-2,3,4-trimethylpiperazin-1-yl)-6,6a,7,8,9,10-hexahydro-12H-pyrazino[2,1-c]pyrido[3,4-f][1,4]oxazepin-12 (6aH)-one] here?
Answer: The IC50 was 298 nM.

Question: For `C=CC(=O)N1CCN2C(=O)c3c(N4CC(N5CCN(C)CC5)CC4(C)C)nc(-c4ccccc4F)c(Cl)c3OC[C@H]2C1` (stereo partly drawn) [Z454, (6aR)-8-acryloyl-4-chloro-1-(2,2-dimethyl-4-(4-methylpiperazin-1-yl)pyrrolidin-1-yl)-3-(2-fluorophenyl)-6,6a,7,8,9,10-hexahydro-12H-pyrazino[2,1-c]pyrido[3,4-f][1,4]oxazepin-12-one], which IC50 is on record?
Answer: The IC50 was 19.8 nM.

Question: `C=CC(=O)N1CCN2C(=O)c3c(N4C[C@H](N(C)C)CC4(C)C)nc(-c4c(F)ccc(F)c4O)c(Cl)c3OC[C@H]2C1` (single isomer, unassigned) [Z475-2] was tested. Which IC50 did it give?
Answer: The IC50 was 79.3 nM.

Question: With `C=CC(=O)N1CCN2C(=O)c3c(N4C[C@@H](N5CCC5)CC4(C)C)nc(-c4ccccc4F)c(Cl)c3OC[C@H]2C1` (single isomer, unassigned) [Z471-1] as the compound, how does the IC50 read?
Answer: The IC50 was 73 nM.

Question: How did the IC50 turn out when `C=CC(=O)N1CCN2C(=O)c3c(N[C@H](C)c4ccccc4)nc(-c4c(O)cccc4F)c(Cl)c3OC[C@H]2C1` [Z28, (6aR)-8-acryloyl-4-chloro-3-(2-fluoro-6-hydroxyphenyl)-1-(((R)-1-phenylethyl)amino)-6,6a,7,8,9,10-hexahydro-12H-pyrazino[2,1-c]pyrido[3,4-f][1,4]oxazepin-12-one] was run?
Answer: Its IC50 is 113 nM.

Question: For `C=CC(=O)N1CCN2C(=O)c3c(N4CC(N(C)CCO)CC4(C)C)nc(-c4ccccc4F)c(Cl)c3OC[C@H]2C1` (stereo partly drawn) [Z658, (6aR)-8-acryloyl-4-chloro-3-(2-fluorophenyl)-1-(4-((2-hydroxyethyl)(methyl)amino)-2,2-dimethylpyrrolidin-1-yl)-6,6a,7,8,9,10-hexahydro-12H-pyrazino[2,1-c]pyrido[3,4-f][1,4]oxazepin-12-one], which IC50 is on record?
Answer: The IC50 was 28.4 nM.

Question: Which IC50 does the source give for `C=CC(=O)N1CCN2C(=O)c3c(N4C[C@@H](N(C)C)CC4(C)C)nc(-c4cccc(F)c4F)c(Cl)c3OC[C@H]2C1` [Z473-1, (R)-8-acryloyl-4-chloro-3-(2,3-difluorophenyl)-1-((S)-4-(dimethylamino)-2,2-dimethylpyrrolidin-1-yl)-6,6a,7,8,9,10-hexahydro-12H-pyrazino[2,1-c]pyrido[3,4-f][1,4]oxazepin-12-one] here?
Answer: The IC50 was 105 nM.

Question: For `C=CC(=O)N1CCN2C(=O)c3c(N4CC[C@H](N(C)C)C4(C)C)nc(-c4ccccc4F)c(Cl)c3OC[C@H]2C1` [Z502-2, (6aR)-8-acryloyl-4-chloro-1-(3-(dimethylamino)-2,2-dimethylpyrrolidin-1-yl)-3-(2-fluorophenyl)-6,6a,7,8,9,10-hexahydro-12H-pyrazino[2,1-c]pyrido[3,4-f][1,4]oxazepin-12(6aH)-one], which IC50 is on record?
Answer: Its IC50 is 160 nM.

Question: For `C=CC(=O)N1CCN2C(=O)c3c(N4C[C@@H](O)CC4(C)C)nc(-c4c(N)cccc4F)c(F)c3OC[C@H]2C1` [Z481, (6aR)-8-acryloyl-3-(2-amino-6-fluorophenyl)-4-fluoro-1-((S)-4-hydroxy-2,2-dimethylpyrrolidin-1-yl)-6,6a,7,8,9,10-hexahydro-12H-pyrazino[2,1-c]pyrido[3,4-f][1,4]oxazepin-12-one], which IC50 is on record?
Answer: The IC50 was 42 nM.

Question: How did the IC50 turn out when `C=CC(=O)N1CCN2C(=O)c3c(N4CC(NC)CC4(C)C)nc(-c4ccccc4F)c(Cl)c3OC[C@H]2C1` (stereo partly drawn) [Z661, (6aR)-8-acryloyl-4-chloro-1-(2,2-dimethyl-4-(methylamino)pyrrolidin-1-yl)-3-(2-fluorophenyl)-6,6a,7,8,9,10-hexahydro-12H-pyrazino[2,1-c]pyrido[3,4-f][1,4]oxazepin-12-one] was run?
Answer: The IC50 was 32.9 nM.

Question: How did the IC50 turn out when `C=CC(=O)N1CCN2C(=O)c3c(OC4CCCN(C)C4)nc(-c4c(O)cccc4F)c(Cl)c3OC[C@H]2C1` (stereo partly drawn) [Z43, (6aR)-8-acryloyl-4-chloro-3-(2-fluoro-6-hydroxyphenyl)-1-((1-methylpiperidin-3-yl)oxy)-6,6a,7,8,9,10-hexahydro-12H-pyrazino[2,1-c]pyrido[3,4-f][1,4]oxazepin-12-one] was run?
Answer: The IC50 was 171 nM.

Question: With `C=CC(=O)N1CCN2C(=O)c3c(N4C[C@@H](C)N(C)C[C@@H]4C)nc(-c4ccccc4F)c(Cl)c3OC[C@H]2C1` [Z464] as the compound, how does the IC50 read?
Answer: Its IC50 is 1930 nM.

Question: `C=CC(=O)N1CCN2C(=O)c3c(N4C[C@H](N(C)CCOC)CC4(C)C)nc(-c4ccccc4F)c(Cl)c3OC[C@H]2C1` (single isomer, unassigned) [Z406-1] was tested. Which IC50 did it give?
Answer: The IC50 was 31 nM.

Question: `C=CC(=O)N1CCN2C(=O)c3c(N4CCN(C)C[C@@H]4C)nc(-c4c(N)cccc4F)c(Cl)c3OC[C@H]2C1` [Z503, (6aR)-8-acryloyl-3-(2-amino-6-fluorophenyl)-4-chloro-1-((S)-2,4-dimethylpiperazin-1-yl)-6,6a,7,8,9,10-hexahydro-12H-pyrazino[2,1-c]pyrido[3,4-f][1,4]oxazepin-12-one] was tested. Which IC50 did it give?
Answer: Its IC50 is 176 nM.

Question: How did the IC50 turn out when `C=CC(=O)N1CCN2C(=O)c3c(N4C[C@@H](N5CCN(C)CC5)CC4(C)C)nc(-c4ccccc4F)c(Cl)c3OC[C@H]2C1` (single isomer, unassigned) [Z454-1] was run?
Answer: Its IC50 is 9.3 nM.
